Source: US10168342B2, “Lipid probes and uses thereof” (THE SCRIPPS RESEARCH INSTITUTE, priority 2015, dated 2019)

Tests used:
Experiment in all cases: isoTOP-ABPP mapping of AEA-DA-modified peptides in Neuro2a cells
Type in all cases: cell-based
[1] = biological target: T1, AEA-DA-modified peptides in Neuro2a cells (Mus musculus, UniProt Q91WD5); settings: AEA-DA-modified peptide NDUFS2 Q91WD5 36-57, SEQ ID NO 67; probe 100 μM, 12 replicates
T1 construct: endogenous in cells; host or cells: Neuro2a
T1 sequence (Q91WD5 34-463): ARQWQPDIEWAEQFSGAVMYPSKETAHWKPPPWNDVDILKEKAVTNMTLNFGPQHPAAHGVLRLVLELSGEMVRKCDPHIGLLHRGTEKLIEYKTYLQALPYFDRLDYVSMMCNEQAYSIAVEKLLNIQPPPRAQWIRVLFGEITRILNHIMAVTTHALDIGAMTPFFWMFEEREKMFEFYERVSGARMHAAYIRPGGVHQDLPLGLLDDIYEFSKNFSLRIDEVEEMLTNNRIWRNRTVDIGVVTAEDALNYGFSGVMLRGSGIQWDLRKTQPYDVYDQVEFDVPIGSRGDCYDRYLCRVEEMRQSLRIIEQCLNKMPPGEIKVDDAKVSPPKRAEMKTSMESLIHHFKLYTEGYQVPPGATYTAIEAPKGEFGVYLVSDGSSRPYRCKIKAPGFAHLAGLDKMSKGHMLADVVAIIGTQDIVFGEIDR

[2] = biological target: T2, AEA-DA-modified peptides in Neuro2a cells (Mus musculus, UniProt P10649); settings: AEA-DA-modified peptide GSTM1 P10649 109-123, SEQ ID NO 44; probe 100 μM, 12 replicates
T2 construct: endogenous in cells; host or cells: Neuro2a
T2 sequence (P10649 whole entry): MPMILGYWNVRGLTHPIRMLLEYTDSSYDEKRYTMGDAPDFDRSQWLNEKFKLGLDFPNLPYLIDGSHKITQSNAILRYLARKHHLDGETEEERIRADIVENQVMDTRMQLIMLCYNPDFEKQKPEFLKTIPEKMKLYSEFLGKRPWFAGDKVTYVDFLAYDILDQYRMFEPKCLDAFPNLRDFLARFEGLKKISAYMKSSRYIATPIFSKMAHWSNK

[3] = biological target: T3, AEA-DA-modified peptides in Neuro2a cells (Mus musculus, UniProt Q8K411); settings: AEA-DA-modified peptide PITRM1 Q8K411 364-386, SEQ ID NO 87; probe 100 μM, 12 replicates
T3 construct: endogenous in cells; host or cells: Neuro2a
T3 sequence (Q8K411 16-1036): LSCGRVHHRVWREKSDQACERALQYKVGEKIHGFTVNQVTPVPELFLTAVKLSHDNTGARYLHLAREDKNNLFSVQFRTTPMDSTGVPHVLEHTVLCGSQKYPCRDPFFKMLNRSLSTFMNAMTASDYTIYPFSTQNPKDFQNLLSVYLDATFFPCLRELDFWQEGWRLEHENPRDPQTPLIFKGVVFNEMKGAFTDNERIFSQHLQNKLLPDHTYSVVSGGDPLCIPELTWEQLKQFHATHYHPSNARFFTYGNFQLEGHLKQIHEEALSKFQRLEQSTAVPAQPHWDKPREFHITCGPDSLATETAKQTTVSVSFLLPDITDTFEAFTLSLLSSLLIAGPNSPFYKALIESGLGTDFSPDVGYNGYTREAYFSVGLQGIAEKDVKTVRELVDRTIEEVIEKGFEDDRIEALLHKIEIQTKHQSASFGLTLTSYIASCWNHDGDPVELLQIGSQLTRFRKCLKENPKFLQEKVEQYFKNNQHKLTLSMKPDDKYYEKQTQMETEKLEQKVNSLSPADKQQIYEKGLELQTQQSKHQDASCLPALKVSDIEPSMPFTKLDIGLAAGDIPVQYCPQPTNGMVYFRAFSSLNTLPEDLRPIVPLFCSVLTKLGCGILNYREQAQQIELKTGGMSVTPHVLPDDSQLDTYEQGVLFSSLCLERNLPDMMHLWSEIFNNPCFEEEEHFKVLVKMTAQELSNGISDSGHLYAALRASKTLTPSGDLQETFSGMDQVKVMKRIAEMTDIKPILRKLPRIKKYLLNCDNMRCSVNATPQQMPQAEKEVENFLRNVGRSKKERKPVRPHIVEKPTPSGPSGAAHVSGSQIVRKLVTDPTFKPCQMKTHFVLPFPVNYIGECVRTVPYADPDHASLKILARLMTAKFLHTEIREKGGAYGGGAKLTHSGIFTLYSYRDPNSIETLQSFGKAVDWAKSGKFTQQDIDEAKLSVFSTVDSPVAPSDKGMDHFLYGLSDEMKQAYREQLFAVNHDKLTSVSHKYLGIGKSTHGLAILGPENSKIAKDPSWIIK

[4] = biological target: T4, AEA-DA-modified peptides in Neuro2a cells (Mus musculus, UniProt Q9CQV8); settings: AEA-DA-modified peptide YWHAB Q9CQV8 196-225, SEQ ID NO 120; probe 100 μM, 12 replicates
T4 construct: endogenous in cells; host or cells: Neuro2a
T4 sequence (Q9CQV8 whole entry): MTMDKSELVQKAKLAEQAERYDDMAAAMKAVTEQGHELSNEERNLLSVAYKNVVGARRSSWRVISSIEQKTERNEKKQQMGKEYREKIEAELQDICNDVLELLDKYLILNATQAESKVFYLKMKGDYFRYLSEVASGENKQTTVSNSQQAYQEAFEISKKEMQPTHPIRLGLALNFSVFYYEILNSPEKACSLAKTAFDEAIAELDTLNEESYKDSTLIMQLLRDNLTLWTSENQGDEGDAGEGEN

[5] = biological target: T5, AEA-DA-modified peptides in Neuro2a cells (Mus musculus, UniProt P61205); settings: AEA-DA-modified peptide ARF3 P61205 39-60, SEQ ID NO 11; probe 100 μM, 12 replicates
T5 construct: endogenous in cells; host or cells: Neuro2a
T5 sequence (P61205 whole entry): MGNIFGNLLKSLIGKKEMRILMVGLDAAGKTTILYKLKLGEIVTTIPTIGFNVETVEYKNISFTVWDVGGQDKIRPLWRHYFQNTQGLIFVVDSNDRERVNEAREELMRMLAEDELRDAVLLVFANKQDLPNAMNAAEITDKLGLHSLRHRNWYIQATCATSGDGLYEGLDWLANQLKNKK

[6] = biological target: T6, AEA-DA-modified peptides in Neuro2a cells (Mus musculus, UniProt Q9QUM9); settings: AEA-DA-modified peptide PSMA6 Q9QUM9 103-117, SEQ ID NO 89; probe 100 μM, 12 replicates
T6 construct: endogenous in cells; host or cells: Neuro2a
T6 sequence (Q9QUM9 whole entry): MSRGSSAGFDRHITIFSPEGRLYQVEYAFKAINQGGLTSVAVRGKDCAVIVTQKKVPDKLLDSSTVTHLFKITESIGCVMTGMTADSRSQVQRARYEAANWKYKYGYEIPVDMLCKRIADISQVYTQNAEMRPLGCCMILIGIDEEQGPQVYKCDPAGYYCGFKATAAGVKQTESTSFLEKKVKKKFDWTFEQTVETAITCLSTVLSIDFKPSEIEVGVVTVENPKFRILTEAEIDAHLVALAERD

[7] = biological target: T7, AEA-DA-modified peptides in Neuro2a cells (Mus musculus, UniProt Q64310); settings: probe 100 μM, 12 replicates
T7 construct: endogenous in cells; host or cells: Neuro2a
T7 sequence (Q64310 whole entry): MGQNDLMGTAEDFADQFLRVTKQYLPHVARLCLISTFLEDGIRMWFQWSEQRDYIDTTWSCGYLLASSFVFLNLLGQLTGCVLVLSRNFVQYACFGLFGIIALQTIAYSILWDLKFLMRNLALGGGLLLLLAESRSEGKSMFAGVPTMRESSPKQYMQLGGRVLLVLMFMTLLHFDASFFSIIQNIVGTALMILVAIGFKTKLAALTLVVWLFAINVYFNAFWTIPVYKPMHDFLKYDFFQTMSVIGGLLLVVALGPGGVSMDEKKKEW

[8] = biological target: T8, AEA-DA-modified peptides in Neuro2a cells (Mus musculus, UniProt Q9D379); settings: AEA-DA-modified peptide EPHX1 Q9D379 296-329, SEQ ID NO 39; probe 100 μM, 12 replicates
T8 construct: endogenous in cells; host or cells: Neuro2a
T8 sequence (Q9D379 whole entry): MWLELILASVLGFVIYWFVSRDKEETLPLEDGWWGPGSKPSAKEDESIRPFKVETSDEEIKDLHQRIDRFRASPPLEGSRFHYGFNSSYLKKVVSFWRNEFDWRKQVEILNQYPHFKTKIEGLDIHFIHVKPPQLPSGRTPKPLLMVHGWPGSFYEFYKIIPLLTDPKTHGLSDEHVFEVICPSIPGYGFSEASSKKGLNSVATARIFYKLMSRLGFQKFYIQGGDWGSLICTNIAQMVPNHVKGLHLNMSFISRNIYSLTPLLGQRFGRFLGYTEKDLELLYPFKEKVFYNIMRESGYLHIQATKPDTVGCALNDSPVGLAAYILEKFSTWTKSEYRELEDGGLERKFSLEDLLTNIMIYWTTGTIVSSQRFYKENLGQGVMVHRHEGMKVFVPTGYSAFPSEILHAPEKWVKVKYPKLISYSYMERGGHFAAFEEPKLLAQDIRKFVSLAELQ

[9] = biological target: T9, AEA-DA-modified peptides in Neuro2a cells (Mus musculus, UniProt Q8BVU5); settings: AEA-DA-modified peptide NUDT9 Q8BVU5 230-242, SEQ ID NO 73; probe 100 μM, 12 replicates
T9 construct: endogenous in cells; host or cells: Neuro2a
T9 sequence (Q8BVU5 47-350): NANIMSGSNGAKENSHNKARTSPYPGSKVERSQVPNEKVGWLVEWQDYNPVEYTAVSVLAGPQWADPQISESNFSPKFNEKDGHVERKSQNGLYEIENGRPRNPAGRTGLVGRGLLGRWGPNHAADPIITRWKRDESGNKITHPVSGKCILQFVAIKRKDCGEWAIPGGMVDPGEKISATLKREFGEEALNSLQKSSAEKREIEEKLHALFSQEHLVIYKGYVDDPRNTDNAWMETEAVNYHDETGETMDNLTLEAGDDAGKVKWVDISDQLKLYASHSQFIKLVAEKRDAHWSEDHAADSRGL

[10] = biological target: T10, AEA-DA-modified peptides in Neuro2a cells (Mus musculus, UniProt Q8BKE6); settings: AEA-DA-modified peptide CYP20A1 Q8BKE6 397-414, SEQ ID NO 29; probe 100 μM, 12 replicates
T10 construct: endogenous in cells; host or cells: Neuro2a
T10 sequence (Q8BKE6 whole entry): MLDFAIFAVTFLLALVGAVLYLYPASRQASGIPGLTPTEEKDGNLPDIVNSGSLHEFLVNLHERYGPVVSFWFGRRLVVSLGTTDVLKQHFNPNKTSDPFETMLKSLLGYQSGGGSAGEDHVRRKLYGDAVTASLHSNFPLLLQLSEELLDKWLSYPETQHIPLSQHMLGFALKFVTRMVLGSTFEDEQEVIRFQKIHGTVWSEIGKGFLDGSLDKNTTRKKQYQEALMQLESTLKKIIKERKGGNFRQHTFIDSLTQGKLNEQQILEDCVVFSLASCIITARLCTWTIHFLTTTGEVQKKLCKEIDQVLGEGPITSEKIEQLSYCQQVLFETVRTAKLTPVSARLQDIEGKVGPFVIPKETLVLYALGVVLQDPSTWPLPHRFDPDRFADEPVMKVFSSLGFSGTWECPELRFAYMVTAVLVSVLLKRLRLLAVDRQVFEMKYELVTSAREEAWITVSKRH

[11] = biological target: T11, AEA-DA-modified peptides in Neuro2a cells (Mus musculus, UniProt P47867); settings: AEA-DA-modified peptide SCG3 P47867 178-203, SEQ ID NO 97; probe 100 μM, 12 replicates
T11 construct: endogenous in cells; host or cells: Neuro2a
T11 sequence (P47867 23-471): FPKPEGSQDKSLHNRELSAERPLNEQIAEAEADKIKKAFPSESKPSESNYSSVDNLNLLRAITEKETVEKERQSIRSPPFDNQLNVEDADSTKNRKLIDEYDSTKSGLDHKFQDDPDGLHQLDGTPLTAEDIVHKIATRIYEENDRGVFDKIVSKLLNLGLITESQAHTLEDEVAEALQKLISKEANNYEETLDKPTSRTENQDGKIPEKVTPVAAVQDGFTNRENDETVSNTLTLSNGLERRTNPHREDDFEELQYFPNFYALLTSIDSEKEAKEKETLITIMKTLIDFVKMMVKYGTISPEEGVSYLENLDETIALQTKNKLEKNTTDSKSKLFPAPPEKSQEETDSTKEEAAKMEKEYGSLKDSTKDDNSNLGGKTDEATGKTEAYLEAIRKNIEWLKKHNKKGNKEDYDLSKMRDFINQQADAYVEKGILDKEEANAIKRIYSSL

Q: For `C#CCCCC1(CC/C=C\C/C=C\C/C=C\CCCC(=O)NCCO)N=N1` [AEA-DA, (5Z,8Z,11Z)-N-(2-hydroxyethyl)-14-(3-(pent-4-yn-1-yl)-3H-diazirin-3-yl)tetradeca-5,8,11-trienamide], which Times observed [1] is on record?
A: Its Times observed is 3.

Q: What about the Times observed [2] of the same compound?
A: Its Times observed is 4.

Q: What about the Times observed [3] of the same compound?
A: Its Times observed is 2.

Q: What about the Times observed [4] of the same compound?
A: Its Times observed is 8.

Q: What about the Times observed [5] of the same compound?
A: The Times observed was 9.

Q: What about the Times observed [6] of the same compound?
A: The Times observed was 8.

Q: What about the Times observed ([7]; AEA-DA-modified peptide SURF4 Q64310 2-20, SEQ ID NO 108) of the same compound?
A: Its Times observed is 10.

Q: And the Times observed ([7]; AEA-DA-modified peptide SURF4 Q64310 31-44, SEQ ID NO 109)?
A: Its Times observed is 3.

Q: And the Times observed [8]?
A: The Times observed was 8.

Q: And the Times observed [9]?
A: Its Times observed is 7.

Q: What about the Times observed [10] of the same compound?
A: The Times observed was 8.

Q: And the Times observed [11]?
A: The Times observed was 4.
